Experimental data as given in patent US20220280581A1, “BENEFICIAL BACTERIA AND SECRETORY IMMUNOGLOBULIN A” (priority 2019, published 2022).

Tests used:
[1] = Protection from simulated gastric digestion in vitro (pepsin, pancreatin): viability by CFU plating and live/dead flow cytometry; details: for Slope (CFU/% SIgA): regression of viable CFU post-digestion on SIgA association
Procedure: (§1) Flow cytometry and immunofluorescence: To measure binding cells were fixed using 4% w/v paraformaldehyde for 30 min, washed with PBS, then incubated with 1% bovine serum albumin (BSA) blocking buffer for 1 h. Cells were stained with 1/100 dilution SYTOT™ 9 (S34854, ThermoFisher) for live cells and goat anti-human IgA conjugated to Alexa 647 fluorophore using 1/50 dilution in 1% BSA (ab96998, Abcam). For flow cytometry, all samples were acquired and analyzed on a FACScan flow cytometer (BD Biosciences, Mountain View, Calif.) using the CellQuest software program. For live/dead analyses following in vitro digestion, cells were stained with SYTOT™ 9 (1/100 dilution) for live cells and propidium iodine (1/1000 dilution) for dead cells or cells with compromised membranes.
Protection from digestion using an in vitro model. To determine the extent to which the SIgA-glycan-mediated-bacterial complexes that included the Ig-bound secretory component (SC) where able to protect bacteria and SIgA from proteolytic degradation, an in vitro model was used. Simulated gastric digestion was performed by resuspending bacteria in 200 ul of 0.1% porcine pepsin (Sigma—Aldrich, St. Louis, Mo.) in PBS at pH 4. Samples were placed in an incubating shaker (New Brunswick Scientific, Edison, N.J.) at 140 rpm at 37° C. for 15 min. Cells were then pelleted and resuspended in 200 ul of 0.04% pancreatin (Sigma— Aldrich) in PBS pH 7, and the samples placed in the incubator shaker at 140 rpm at 37° C. for 5 min. Bacteria were pelleted and washed twice with PBS to remove residual enzymes, then evaluated for viability through CFU serial dilution and spot plating, and with live/dead flow cytometry analysis.

[2] = tested on: Caco-2 colonic cells co-cultured with HT29-MTX E12 cells; test: Bacterial adherence to colonocyte co-cultures; assay type: cell-based, human
Procedure: (§2) Mammalian cell culture binding assays: Caco-2 colonic cells were co-cultured with HT29-MTX E12 cells at a ratio of 3:1 and seeded at a density of 5×10^4 cells/well in 24-well plates, maintained as described above. On day 1 post-confluence, medium was removed, the cells washed once with PBS, and DMEM without FBS or antibiotics was added prior to binding assay. Bacteria were prepared as described above, with or without SIgA and resuspended in PBS at 1×10^7 CFU/mL. 4×10^5 CFU were added to the colonocytes and the plate was centrifuged at 600×g for 5 min to ensure bacteria association with the cells. After 2 h of incubation at 37° C. in 5% CO2, medium was removed and saved for cytokine analysis. Cells were washed once with PBS, and to one set of replicates, cells were lysed with 0.5% Triton X-100 and serial dilutions of the cell suspensions were plated on MRS and incubated anaerobically at 37° C. overnight to test viability. To a second set of replicates, TRIzol (15596018; Life Technologies) was added directly to washed cells for RNA extraction.

SIgA = test: Loss of SIgA-bacteria association after deglycosylation; assay type: binding
pooled human milk SIgA [3] = test: Binding of SIgA to bacteria by flow cytometry; details: for binding of a heterogeneous pool of SIgA: 0-1000 μg SIgA per 1e7 CFU; for association to SIgA when first grown on 2′FL: 1% 2′FL in the final media
Procedure: Binding of sIgA to bacteria. Bacteria from Table 1 were resuspended in 0.8% saline at a concentration of 1×10^7 CFU/mL. SIgA was then added at 0, 10, 100, 500 and 1000 μg per 1×10^7 colony forming units (CFU) of bacteria and incubated at 24° C. for 30 min. Following incubation, bacteria were pelleted at 14000×g for 4 min and washed with saline twice to remove non-adherent SIgA.
as §1

[4] = tested on: colonocytes (Caco-2 / HT29-MTX E12 co-culture); test: Colonocyte barrier function and immune gene expression (RT-qPCR); assay type: cell-based, human; details: 1000 μg SIgA per 1e7 CFU vs no SIgA
Procedure: as §2
Mammalian cell culture RT-qPCR for gene expression: Total RNA from mammalian co-culture samples were extracted via the TRIzol method. Total RNA (1 μg) was treated with Turbo DNAse (EN0521; Thermo Fisher) to remove genomic DNA, then used for reverse transcription producing cDNA, performed according to manufacturer protocol (High Capacity Complementary DNA Reverse Transcription Kit; Applied Biosystems). Gene list and primer sequences can be found in Table 2. Real-time PCR was performed with the Quantistudio 3 qPCR thermocycler (Applied Biosystems) using SyberGreen master mix (Life Technologies). Actin and GADPH were used as house-keeping genes. Analysis was performed using Quantistudio Design and Analysis Software v.1.4.3.

pooled human milk SIgA [5] = test: Binding of SIgA to bacteria by flow cytometry; details: 100 μg SIgA to 1e6 cfu bacteria

## Lactobacillus reuteri DSM
[1]; grown on glucose
  slope m of association to SIgA post-digestion: −3.9e4 CFU/% SIgA association
[1]; substrate glucose
  Slope (CFU/% SIgA): −38517 CFU/% SIgA
[1]; substrate lactose
  Slope (CFU/% SIgA): 47155 CFU/% SIgA
[2]; substrate all
  Slope (adherent CFU/% SIgA association): −4652.0 adherent CFU/% SIgA associatio
[2]; substrate glucose
  Slope (adherent CFU/% SIgA association): −9455.0 adherent CFU/% SIgA associatio
[2]; substrate lactose
  Slope (adherent CFU/% SIgA association): 524.1 adherent CFU/% SIgA associatio
SIgA
  loss of SIgA-bacteria complexes after deglycosylation: over 7%

## Lactobacillus rhamnosus ATCC 7469
Pooled human milk SIgA [3]
  binding of a heterogeneous pool of SIgA: concentration dependent
[1]; grown in 1% glucose
  difference post-digestion with or without SIgA: no significant difference
[1]; substrate 2′FL
  Slope (CFU/% SIgA): −39446 CFU/% SIgA
[1]; substrate glucose
  Slope (CFU/% SIgA): −2121 CFU/% SIgA
[1]; substrate lactose
  Slope (CFU/% SIgA): −23719 CFU/% SIgA
[2]; lactose-grown
  slope of regression plot of adherent bacteria with SIgA association: 37.7 adherent CFU per % population associated with SIgA
[2]; substrate 2'FL
  Slope (adherent CFU/% SIgA association): 333.3 adherent CFU/% SIgA associatio
[2]; substrate glucose
  Slope (adherent CFU/% SIgA association): −138.4 adherent CFU/% SIgA associatio
[2]; substrate lactose
  Slope (adherent CFU/% SIgA association): 456.6 adherent CFU/% SIgA associatio
[4]
  decrease of IL-8 gene expression when first complexed with SIgA: 4 fold
  decrease of pIgR gene expression when first complexed with SIgA: 4 fold

## Bifidobacterium pseudocatenulatum MP80
Pooled human milk SIgA [3]
  association to SIgA when first grown on 2′FL: increased association to SIgA
[1]; grown on glucose, 100 or 1000 μg SIgA/1e7 CFU
  viable bacteria post-digestion: 4e6
[1]; grown on glucose, no SIgA
  viable bacteria post-digestion: 2e5 CFU
[1]; post-digestion, grown on glucose
  slope of regression plot of viability with SIgA association: 8.2e4 CFU per % population SIgA association
[1]; substrate 2′FL
  Slope (CFU/% SIgA): 51114 CFU/% SIgA
[1]; substrate glucose
  Slope (CFU/% SIgA): 82548 CFU/% SIgA
[2]; substrate 2'FL
  Slope (adherent CFU/% SIgA association): −50.6 adherent CFU/% SIgA associatio
[2]; substrate all
  Slope (adherent CFU/% SIgA association): 32.0 adherent CFU/% SIgA associatio
[2]; substrate glucose
  Slope (adherent CFU/% SIgA association): 14.2 adherent CFU/% SIgA associatio
Pooled human milk SIgA [5]
  ability to bind to pooled human milk SIgA: 40.3%
  increase in SIgA binding when first grown on an HMO substrate: 61.7%

## Bifidobacterium longum ssp. longum SC596
Pooled human milk SIgA [3]
  binding of a heterogeneous pool of SIgA: concentration dependent
  association to SIgA when first grown on 2′FL: increased association to SIgA
[1]; 1000 μg SIgA/1e7 CFU
  live bacteria post-digestion (live-dead flow cytometry): 50.85%
[1]; no SIgA
  live bacteria post-digestion (live-dead flow cytometry): 29.05%
[2]; first grown on 2′FL
  increased adherence to colonocytes with SIgA association: 4e3
[2]; substrate 2'FL
  Slope (adherent CFU/% SIgA association): 37.7 adherent CFU/% SIgA associatio
[2]; substrate all
  Slope (adherent CFU/% SIgA association): 27.1 adherent CFU/% SIgA associatio
[2]; substrate glucose
  Slope (adherent CFU/% SIgA association): 28.5 adherent CFU/% SIgA associatio
[2]; substrate lactose
  Slope (adherent CFU/% SIgA association): −13.3 adherent CFU/% SIgA associatio

## Bifidobacterium breve SC95
[1]; 1000 μg SIgA/1e7 CFU
  live bacteria post-digestion (live-dead flow cytometry): 57.8%
[1]; no SIgA
  live bacteria post-digestion (live-dead flow cytometry): no viable bacteria
[1]; substrate LNnT
  Slope (CFU/% SIgA): 223.1 CFU/% SIgA
[1]; substrate lactose
  Slope (CFU/% SIgA): −106.9 CFU/% SIgA
[2]; substrate LNnT
  Slope (adherent CFU/% SIgA association): 19516.0 adherent CFU/% SIgA associatio
[2]; substrate all
  Slope (adherent CFU/% SIgA association): 13289.0 adherent CFU/% SIgA associatio
[2]; substrate glucose
  Slope (adherent CFU/% SIgA association): 9083.0 adherent CFU/% SIgA associatio
[2]; substrate lactose
  Slope (adherent CFU/% SIgA association): 4617.0 adherent CFU/% SIgA associatio
Pooled human milk SIgA [5]
  ability to bind to pooled human milk SIgA: 16%
  increase in SIgA binding when first grown on an HMO substrate: 45%

## Lactobacillus acidophilus NCFM
[1]; grown on glucose
  slope m of association to SIgA post-digestion: −8.9e3 CFU/% SIgA association
[1]; substrate glucose
  Slope (CFU/% SIgA): −8952 CFU/% SIgA
[1]; substrate lactose
  Slope (CFU/% SIgA): 38918 CFU/% SIgA
[2]; substrate all
  Slope (adherent CFU/% SIgA association): −3134.0 adherent CFU/% SIgA associatio
[2]; substrate glucose
  Slope (adherent CFU/% SIgA association): −3014.0 adherent CFU/% SIgA associatio
[2]; substrate lactose
  Slope (adherent CFU/% SIgA association): −3341.0 adherent CFU/% SIgA associatio

## Bifidobacterium bifidum SC555
[2]; substrate 2'FL
  Slope (adherent CFU/% SIgA association): 16.9 adherent CFU/% SIgA associatio
[2]; substrate all
  Slope (adherent CFU/% SIgA association): 896.4 adherent CFU/% SIgA associatio
[2]; substrate glucose
  Slope (adherent CFU/% SIgA association): 2288.0 adherent CFU/% SIgA associatio
